According to ChEMBL document CHEMBL1130802, “Design and synthesis of a new type of non steroidal human aromatase inhibitors” (Bioorg Med Chem Lett, 1998):

How the values were obtained:
Aromatase [1] = target: T1, Aromatase (Homo sapiens, UniProt P11511)
T1 sequence (P11511 whole entry): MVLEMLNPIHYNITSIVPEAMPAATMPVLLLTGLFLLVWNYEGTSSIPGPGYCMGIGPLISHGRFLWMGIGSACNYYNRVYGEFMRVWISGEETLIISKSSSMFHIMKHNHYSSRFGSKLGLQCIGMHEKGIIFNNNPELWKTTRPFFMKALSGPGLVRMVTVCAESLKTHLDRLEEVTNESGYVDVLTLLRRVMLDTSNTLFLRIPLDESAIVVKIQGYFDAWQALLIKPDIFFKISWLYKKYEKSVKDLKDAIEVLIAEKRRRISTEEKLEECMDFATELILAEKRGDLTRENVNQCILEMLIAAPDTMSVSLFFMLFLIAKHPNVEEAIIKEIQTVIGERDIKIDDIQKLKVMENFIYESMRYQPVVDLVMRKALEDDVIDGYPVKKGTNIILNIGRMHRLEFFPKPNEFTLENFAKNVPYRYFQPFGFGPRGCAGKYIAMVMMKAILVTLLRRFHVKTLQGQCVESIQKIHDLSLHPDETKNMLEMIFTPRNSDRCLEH
Description: Inhibition constant for human aromatase cytochrome P450 19A1 activity

Aromatase [2] = target: T1, Aromatase; remark: listed apart in the source
Description: Inhibition of human aromatase cytochrome P450 19A1 activity

- Ki (Aromatase [1]): 10.3 nM
- IC50 (Aromatase [2]): 800 nM
SMILES: O=C1/C(=C\c2ccncc2)C(c2ccccc2)c2ccccc21 (configuration not stated)
